# Reference: ChEMBL document CHEMBL4387741, “Optimization of novel reversible Bruton's tyrosine kinase inhibitors identified using Tethering-fragment-based screens” (Bioorg Med Chem, 2019)
# What was measured:
# [1] = molecular target: Serine/threonine-protein kinase PknB (Mycobacterium tuberculosis) (UniProt P9WI81); assay: Inhibition of wild-type Mycobacterium tuberculosis partial length PKNB (M1 to G279 residues) expressed in mammalian expression system at 1 uM by Kinomescan method relative to control
# Serine/threonine-protein kinase PknB (Mycobacterium tuberculosis), sequence (P9WI81 whole entry, the tested form may be a part): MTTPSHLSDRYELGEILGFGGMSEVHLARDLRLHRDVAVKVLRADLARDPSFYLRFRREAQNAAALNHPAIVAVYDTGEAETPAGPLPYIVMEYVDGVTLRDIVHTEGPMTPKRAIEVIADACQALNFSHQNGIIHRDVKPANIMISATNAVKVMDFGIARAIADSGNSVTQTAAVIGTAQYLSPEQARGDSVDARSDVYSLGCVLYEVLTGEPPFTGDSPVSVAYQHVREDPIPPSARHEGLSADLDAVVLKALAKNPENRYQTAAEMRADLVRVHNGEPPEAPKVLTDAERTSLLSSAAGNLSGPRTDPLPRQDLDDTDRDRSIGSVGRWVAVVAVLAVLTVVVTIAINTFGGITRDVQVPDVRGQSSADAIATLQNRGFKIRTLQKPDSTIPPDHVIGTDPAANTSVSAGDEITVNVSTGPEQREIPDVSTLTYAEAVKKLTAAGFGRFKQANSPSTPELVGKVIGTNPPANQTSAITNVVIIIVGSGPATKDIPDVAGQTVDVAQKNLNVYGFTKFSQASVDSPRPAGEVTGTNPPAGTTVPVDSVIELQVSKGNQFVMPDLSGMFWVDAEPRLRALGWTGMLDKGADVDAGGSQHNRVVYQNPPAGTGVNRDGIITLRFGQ
# [2] = molecular target: Dual specificity protein kinase CLK2 (Homo sapiens) (UniProt P49760); assay: Inhibition of wild-type human partial length CLK2 (D144 to R498 residues) expressed in bacterial expression system at 1 uM by Kinomescan method relative to control
# [3] = molecular target: Testis-specific serine/threonine-protein kinase 3 (Homo sapiens) (UniProt Q96PN8); assay: Inhibition of wild-type human full length TSSK3 (M1 to T268 residues) expressed in mammalian expression system at 1 uM by Kinomescan method relative to control
# [4] = molecular target: Epidermal growth factor receptor (Homo sapiens) (UniProt P00533); assay: Inhibition of wild-type human partial length EGFR (R669 to V1011 residues) expressed in bacterial expression system at 1 uM by Kinomescan method relative to control
# [5] = molecular target: Casein kinase I isoform gamma-3 (Homo sapiens) (UniProt Q9Y6M4); assay: Inhibition of wild-type human full length CSNK1G3 (M1 to K447 residues) expressed in bacterial expression system at 1 uM by Kinomescan method relative to control
# Casein kinase I isoform gamma-3 (Homo sapiens), sequence (Q9Y6M4 whole entry, looked up, the tested form may be a part, canonical isoform): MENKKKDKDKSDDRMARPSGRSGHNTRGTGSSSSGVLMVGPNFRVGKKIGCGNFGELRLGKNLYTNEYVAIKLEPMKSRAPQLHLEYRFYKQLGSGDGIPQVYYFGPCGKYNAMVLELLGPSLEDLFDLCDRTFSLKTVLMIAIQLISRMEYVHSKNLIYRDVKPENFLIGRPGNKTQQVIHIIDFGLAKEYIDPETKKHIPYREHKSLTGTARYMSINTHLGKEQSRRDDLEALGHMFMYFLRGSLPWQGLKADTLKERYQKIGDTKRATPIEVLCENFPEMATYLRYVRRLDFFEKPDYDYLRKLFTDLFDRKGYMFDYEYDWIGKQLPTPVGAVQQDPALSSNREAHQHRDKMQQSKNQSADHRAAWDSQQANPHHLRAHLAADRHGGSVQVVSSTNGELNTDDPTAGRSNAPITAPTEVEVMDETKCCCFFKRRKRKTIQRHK
# [6] = molecular target: Mitogen-activated protein kinase kinase kinase 15 (Homo sapiens) (UniProt Q6ZN16); assay: Inhibition of wild-type human partial length MAP3K15 (T625 to L932 residues) expressed in mammalian expression system at 1 uM by Kinomescan method relative to control
# [7] = molecular target: Cyclin-dependent kinase 14 (Homo sapiens) (UniProt O94921); assay: Inhibition of wild-type human full length PFTK1 (M1 to H451 residues) expressed in bacterial expression system at 1 uM by Kinomescan method relative to control
# [8] = molecular target: Non-receptor tyrosine-protein kinase TNK1 (Homo sapiens) (UniProt Q13470); assay: Inhibition of wild-type human full length TNK1 (M1 to P661 residues) expressed in bacterial expression system at 1 uM by Kinomescan method relative to control
# Non-receptor tyrosine-protein kinase TNK1 (Homo sapiens), sequence (Q13470 whole entry, the tested form may be a part): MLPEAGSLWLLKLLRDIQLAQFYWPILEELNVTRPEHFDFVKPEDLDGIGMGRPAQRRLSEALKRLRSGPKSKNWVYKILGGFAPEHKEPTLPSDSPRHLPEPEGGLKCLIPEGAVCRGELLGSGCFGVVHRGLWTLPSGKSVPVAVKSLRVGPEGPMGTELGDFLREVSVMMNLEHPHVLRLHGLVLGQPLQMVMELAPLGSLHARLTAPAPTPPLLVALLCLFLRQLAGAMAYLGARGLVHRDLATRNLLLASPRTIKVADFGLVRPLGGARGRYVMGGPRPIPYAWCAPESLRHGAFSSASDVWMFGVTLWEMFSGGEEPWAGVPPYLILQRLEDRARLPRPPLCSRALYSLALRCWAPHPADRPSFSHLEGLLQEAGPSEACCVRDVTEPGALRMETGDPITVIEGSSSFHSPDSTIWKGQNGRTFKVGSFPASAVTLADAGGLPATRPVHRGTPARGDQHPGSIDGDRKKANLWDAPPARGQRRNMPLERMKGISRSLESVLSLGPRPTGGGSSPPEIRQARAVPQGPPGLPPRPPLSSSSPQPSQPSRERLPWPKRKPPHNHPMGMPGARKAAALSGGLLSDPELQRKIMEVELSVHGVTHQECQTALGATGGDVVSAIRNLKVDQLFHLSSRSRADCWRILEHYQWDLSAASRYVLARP
# [9] = molecular target: Calcium-dependent protein kinase 1 (Plasmodium falciparum) (UniProt P62344); assay: Inhibition of wild-type Plasmodium falciparum full length CDPK1 (M1 to S524 residues) expressed in mammalian expression system at 1 uM by Kinomescan method relative to control
# Calcium-dependent protein kinase 1 (Plasmodium falciparum), sequence (P62344 2-524 limits assumed): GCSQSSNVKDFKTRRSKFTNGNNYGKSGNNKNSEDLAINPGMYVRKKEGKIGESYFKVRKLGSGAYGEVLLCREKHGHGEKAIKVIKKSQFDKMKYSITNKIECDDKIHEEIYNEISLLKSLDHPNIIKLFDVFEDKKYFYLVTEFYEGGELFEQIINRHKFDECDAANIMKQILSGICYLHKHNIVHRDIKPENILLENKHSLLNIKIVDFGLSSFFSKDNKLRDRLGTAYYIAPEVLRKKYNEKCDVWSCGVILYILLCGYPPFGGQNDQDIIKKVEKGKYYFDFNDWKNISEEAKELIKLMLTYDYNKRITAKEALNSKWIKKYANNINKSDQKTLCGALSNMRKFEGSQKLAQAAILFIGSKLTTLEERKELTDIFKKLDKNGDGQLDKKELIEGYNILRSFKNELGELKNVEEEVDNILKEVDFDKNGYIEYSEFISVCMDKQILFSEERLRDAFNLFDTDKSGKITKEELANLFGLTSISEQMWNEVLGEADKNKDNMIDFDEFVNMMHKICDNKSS
# [10] = molecular target: Phosphatidylinositol 5-phosphate 4-kinase type-2 gamma (Homo sapiens) (UniProt Q8TBX8); assay: Inhibition of wild-type human partial length PIP5K2C (M1 to A421 residues) expressed in mammalian expression system at 1 uM by Kinomescan method relative to control
# Phosphatidylinositol 5-phosphate 4-kinase type-2 gamma (Homo sapiens), sequence (Q8TBX8 whole entry, the tested form may be a part): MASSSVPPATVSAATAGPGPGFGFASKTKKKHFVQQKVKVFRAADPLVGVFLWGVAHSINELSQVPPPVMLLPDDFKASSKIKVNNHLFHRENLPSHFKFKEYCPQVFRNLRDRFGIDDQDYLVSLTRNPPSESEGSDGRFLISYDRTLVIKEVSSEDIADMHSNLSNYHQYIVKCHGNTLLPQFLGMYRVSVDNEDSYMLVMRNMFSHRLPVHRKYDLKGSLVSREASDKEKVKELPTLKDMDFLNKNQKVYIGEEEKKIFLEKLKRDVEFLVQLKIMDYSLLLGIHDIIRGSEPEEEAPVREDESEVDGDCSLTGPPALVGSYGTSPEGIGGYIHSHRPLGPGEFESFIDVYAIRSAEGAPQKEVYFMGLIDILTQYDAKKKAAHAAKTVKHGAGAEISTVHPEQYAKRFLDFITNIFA
# [11] = tested on: Epidermal growth factor receptor (Homo sapiens), P00533 [UNDEFINED MUTATION]; assay: Inhibition of human partial length EGFR L747-S752del/P753S mutant expressed in bacterial expression system at 1 uM by Kinomescan method relative to control
# Epidermal growth factor receptor (Homo sapiens), P00533 [UNDEFINED MUTATION], sequence (P00533 whole entry, looked up, stated change not applied, the tested form may be a part): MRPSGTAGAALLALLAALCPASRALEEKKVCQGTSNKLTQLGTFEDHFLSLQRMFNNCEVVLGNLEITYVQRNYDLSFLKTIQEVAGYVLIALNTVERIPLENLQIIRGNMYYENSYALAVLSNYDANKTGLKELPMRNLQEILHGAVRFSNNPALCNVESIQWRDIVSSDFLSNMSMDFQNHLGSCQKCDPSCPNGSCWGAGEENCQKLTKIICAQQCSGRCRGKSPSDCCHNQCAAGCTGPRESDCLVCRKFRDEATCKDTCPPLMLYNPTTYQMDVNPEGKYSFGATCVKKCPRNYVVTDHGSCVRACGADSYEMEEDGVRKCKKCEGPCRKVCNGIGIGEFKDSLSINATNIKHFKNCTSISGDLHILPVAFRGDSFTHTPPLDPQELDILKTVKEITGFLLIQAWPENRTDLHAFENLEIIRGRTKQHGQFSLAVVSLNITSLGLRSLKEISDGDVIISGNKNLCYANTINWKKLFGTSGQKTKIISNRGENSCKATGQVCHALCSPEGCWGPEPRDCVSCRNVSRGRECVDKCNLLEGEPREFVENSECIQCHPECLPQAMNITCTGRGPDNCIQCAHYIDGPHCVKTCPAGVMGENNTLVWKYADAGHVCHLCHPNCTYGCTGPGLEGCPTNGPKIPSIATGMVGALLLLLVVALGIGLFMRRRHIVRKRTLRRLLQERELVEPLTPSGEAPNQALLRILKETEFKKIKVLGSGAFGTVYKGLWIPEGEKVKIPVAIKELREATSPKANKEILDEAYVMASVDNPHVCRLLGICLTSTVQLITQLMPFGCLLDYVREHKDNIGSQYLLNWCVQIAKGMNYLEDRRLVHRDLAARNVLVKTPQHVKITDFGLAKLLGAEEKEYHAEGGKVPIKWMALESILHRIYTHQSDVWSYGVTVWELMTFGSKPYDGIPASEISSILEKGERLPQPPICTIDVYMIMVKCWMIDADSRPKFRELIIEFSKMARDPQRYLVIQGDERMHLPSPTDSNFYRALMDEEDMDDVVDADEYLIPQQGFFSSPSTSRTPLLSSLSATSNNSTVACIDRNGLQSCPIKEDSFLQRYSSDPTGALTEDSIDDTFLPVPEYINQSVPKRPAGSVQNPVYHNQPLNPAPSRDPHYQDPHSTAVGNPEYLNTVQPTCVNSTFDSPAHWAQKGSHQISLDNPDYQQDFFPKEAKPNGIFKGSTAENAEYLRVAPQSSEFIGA
# [12] = molecular target: Serine/threonine-protein kinase 25 (Homo sapiens) (UniProt O00506); assay: Inhibition of wild-type human partial length YSK1 (V14 to H295 residues) expressed in bacterial expression system at 1 uM by Kinomescan method relative to control
# [13] = molecular target: MAP kinase-activated protein kinase 5 (Homo sapiens) (UniProt Q8IW41); assay: Inhibition of wild-type human partial length MAPKAPK5 (M1 to D322 residues) expressed in mammalian expression system at 10 uM by Kinomescan method relative to control
# [14] = tested on: Phosphatidylinositol 4,5-bisphosphate 3-kinase catalytic subunit alpha isoform (Homo sapiens), P42336 [H1047Y]; assay: Inhibition of human partial length PIK3CA H1047Y mutant (R108 to N1068 residues) expressed in mammalian expression system at 10 uM by Kinomescan method relative to control
# [15] = molecular target: Serine/threonine-protein kinase ICK (Homo sapiens) (UniProt Q9UPZ9); assay: Inhibition of wild-type human partial length ICK (M1 to P314 residues) expressed in mammalian expression system at 10 uM by Kinomescan method relative to control
# [16] = molecular target: Tyrosine-protein kinase Tec (Homo sapiens) (UniProt P42680); assay: Inhibition of wild-type human partial length TEC (L341 to D620 residues) expressed in bacterial expression system at 10 uM by Kinomescan method relative to control
# Tyrosine-protein kinase Tec (Homo sapiens), sequence (P42680 whole entry, the tested form may be a part): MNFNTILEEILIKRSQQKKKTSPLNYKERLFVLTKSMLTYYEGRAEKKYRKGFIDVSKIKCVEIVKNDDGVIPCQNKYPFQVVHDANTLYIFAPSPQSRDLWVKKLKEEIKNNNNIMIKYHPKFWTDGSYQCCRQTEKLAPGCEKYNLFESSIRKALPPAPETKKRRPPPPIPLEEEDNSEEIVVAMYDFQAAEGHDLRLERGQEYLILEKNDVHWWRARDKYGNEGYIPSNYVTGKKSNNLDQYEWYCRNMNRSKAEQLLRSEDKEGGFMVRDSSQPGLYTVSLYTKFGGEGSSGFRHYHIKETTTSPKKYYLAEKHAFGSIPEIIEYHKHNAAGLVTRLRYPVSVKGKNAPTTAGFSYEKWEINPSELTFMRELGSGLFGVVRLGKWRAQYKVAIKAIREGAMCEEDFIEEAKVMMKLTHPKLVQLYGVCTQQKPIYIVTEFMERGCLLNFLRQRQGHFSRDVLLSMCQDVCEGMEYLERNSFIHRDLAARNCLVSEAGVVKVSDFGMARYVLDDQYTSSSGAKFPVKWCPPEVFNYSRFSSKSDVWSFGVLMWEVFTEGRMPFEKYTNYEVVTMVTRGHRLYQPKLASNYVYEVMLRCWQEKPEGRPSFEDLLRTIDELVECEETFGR
# [17] = tested on: Proto-oncogene tyrosine-protein kinase receptor Ret (Homo sapiens), P07949 [V804M]; assay: Inhibition of human partial length RET V804M mutant (E713 to D1014 residues) expressed in bacterial expression system at 10 uM by Kinomescan method relative to control
# [18] = molecular target: Tyrosine-protein kinase Fer (Homo sapiens) (UniProt P16591); assay: Inhibition of wild-type human partial length FER (S542 to T822 residues) expressed in bacterial expression system at 10 uM by Kinomescan method relative to control
# [19] = molecular target: Ephrin type-B receptor 4 (Homo sapiens) (UniProt P54760); assay: Inhibition of wild-type human partial length EPHB4 (H585 to G892 residues) expressed in bacterial expression system at 10 uM by Kinomescan method relative to control
# [20] = molecular target: Eukaryotic translation initiation factor 2-alpha kinase 1 (Homo sapiens) (UniProt Q9BQI3); assay: Inhibition of wild-type human partial length EIF2AK1 (Q147 to E603 residues) expressed in mammalian expression system at 10 uM by Kinomescan method relative to control
# [21] = molecular target: RAC-beta serine/threonine-protein kinase (Homo sapiens) (UniProt P31751); assay: Inhibition of wild-type human partial length AKT2 expressed in bacterial expression system at 10 uM by Kinomescan method relative to control
# RAC-beta serine/threonine-protein kinase (Homo sapiens), sequence (P31751 whole entry, the tested form may be a part): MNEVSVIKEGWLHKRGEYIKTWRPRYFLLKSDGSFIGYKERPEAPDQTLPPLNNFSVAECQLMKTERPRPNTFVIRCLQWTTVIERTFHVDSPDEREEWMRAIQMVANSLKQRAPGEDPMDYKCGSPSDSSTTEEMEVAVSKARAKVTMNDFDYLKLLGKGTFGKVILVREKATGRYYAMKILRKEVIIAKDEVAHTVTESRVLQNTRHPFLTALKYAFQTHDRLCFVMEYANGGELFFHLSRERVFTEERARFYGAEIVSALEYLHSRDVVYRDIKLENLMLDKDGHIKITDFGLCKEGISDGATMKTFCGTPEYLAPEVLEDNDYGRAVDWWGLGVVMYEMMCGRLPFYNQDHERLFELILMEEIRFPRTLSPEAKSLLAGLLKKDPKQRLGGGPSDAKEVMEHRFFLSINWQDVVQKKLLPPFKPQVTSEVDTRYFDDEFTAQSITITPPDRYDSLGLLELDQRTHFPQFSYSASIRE
# [22] = molecular target: NUAK family SNF1-like kinase 2 (Homo sapiens) (UniProt Q9H093); assay: Inhibition of wild-type human partial length SNARK (P22 to A333 residues) expressed in mammalian expression system at 10 uM by Kinomescan method relative to control
# [23] = molecular target: Phosphatidylinositol 4-phosphate 5-kinase type-1 gamma (Homo sapiens) (UniProt O60331); assay: Inhibition of wild-type human partial length PIP5K1C (M1 to T668 residues) expressed in mammalian expression system at 10 uM by Kinomescan method relative to control
# [24] = molecular target: Non-receptor tyrosine-protein kinase TNK1 (Homo sapiens) (UniProt Q13470); assay: Inhibition of wild-type human full length TNK1 (M1 to P661 residues) expressed in bacterial expression system at 10 uM by Kinomescan method relative to control
# [25] = molecular target: Serine/threonine-protein kinase NIM1 (Homo sapiens) (UniProt Q8IY84); assay: Inhibition of wild-type human partial length NIM1 (Q44 to N355 residues) expressed in mammalian expression system at 10 uM by Kinomescan method relative to control
# [26] = molecular target: Ribosomal protein S6 kinase alpha-6 (Homo sapiens) (UniProt Q9UK32); assay: Inhibition of wild-type human partial length N-terminal RSK4 kinase domain 1 (M1 to E397 residues) expressed in mammalian expression system at 10 uM by Kinomescan method relative to control
# [27] = molecular target: Casein kinase I isoform gamma-3 (Homo sapiens) (UniProt Q9Y6M4); assay: Inhibition of wild-type human full length CSNK1G3 (M1 to K447 residues) expressed in bacterial expression system at 10 uM by Kinomescan method relative to control
smiles,measurement,setting,value
O=C(Nc1cccc([C@@H]2CN(c3ncnc4[nH]ccc34)CCN2CCO)c1)Nc1c(F)cccc1N1CCCC1,inhibition,[1],80%
same,inhibition,[2],86%
same,inhibition,[3],43%
same,inhibition,[4],100%
same,inhibition,[5],94%
same,inhibition,[6],74%
same,inhibition,[7],89%
same,inhibition,[8],65%
same,inhibition,[9],71%
same,inhibition,[10],83%
same,inhibition,[11],100%
same,inhibition,[12],91%
O=C(Nc1cccc([C@H]2CCCN(c3ncnc4[nH]ccc34)C2)c1)Nc1ccccc1N1CCCC1,inhibition,[13],100%
same,inhibition,[14],61%
same,inhibition,[15],100%
same,inhibition,[16],73%
same,inhibition,[17],0.65%
same,inhibition,[18],80%
same,inhibition,[19],98%
same,inhibition,[20],100%
same,inhibition,[21],100%
same,inhibition,[22],6.6%
same,inhibition,[23],59%
same,inhibition,[24],65%
same,inhibition,[25],75%
same,inhibition,[26],34%
same,inhibition,[27],99%
